Assay results taken from publication PMC10865871, “Homologous acetone carboxylases select Fe(II) or Mn(II) as the catalytic cofactor” (mBio, 2023).

Tests used:
[1] = molecular target: T1, X. autotrophicus AC (acetone carboxylase, (αβγ)2) (Xanthobacter versatilis, UniProt Q8RM03+Q8RM04); test: EPR of active-site Mn(II); […] Moessbauer; type: binding; conditions: 10 mM AMP, 1 mM MgCl2, pH 7.6, 12 K (EPR); Mn(II)-bound enzyme
T1 construct: gene acxB; recombinant in E. coli BL21(DE3), pET-Duet vectors; N-terminal 6-His tag on beta subunit; (αβγ)2 heterohexamer; AMP site in beta, metal site in alpha; with Acetone carboxylase gamma subunit
T1 sequence (Q8RM03 1-776): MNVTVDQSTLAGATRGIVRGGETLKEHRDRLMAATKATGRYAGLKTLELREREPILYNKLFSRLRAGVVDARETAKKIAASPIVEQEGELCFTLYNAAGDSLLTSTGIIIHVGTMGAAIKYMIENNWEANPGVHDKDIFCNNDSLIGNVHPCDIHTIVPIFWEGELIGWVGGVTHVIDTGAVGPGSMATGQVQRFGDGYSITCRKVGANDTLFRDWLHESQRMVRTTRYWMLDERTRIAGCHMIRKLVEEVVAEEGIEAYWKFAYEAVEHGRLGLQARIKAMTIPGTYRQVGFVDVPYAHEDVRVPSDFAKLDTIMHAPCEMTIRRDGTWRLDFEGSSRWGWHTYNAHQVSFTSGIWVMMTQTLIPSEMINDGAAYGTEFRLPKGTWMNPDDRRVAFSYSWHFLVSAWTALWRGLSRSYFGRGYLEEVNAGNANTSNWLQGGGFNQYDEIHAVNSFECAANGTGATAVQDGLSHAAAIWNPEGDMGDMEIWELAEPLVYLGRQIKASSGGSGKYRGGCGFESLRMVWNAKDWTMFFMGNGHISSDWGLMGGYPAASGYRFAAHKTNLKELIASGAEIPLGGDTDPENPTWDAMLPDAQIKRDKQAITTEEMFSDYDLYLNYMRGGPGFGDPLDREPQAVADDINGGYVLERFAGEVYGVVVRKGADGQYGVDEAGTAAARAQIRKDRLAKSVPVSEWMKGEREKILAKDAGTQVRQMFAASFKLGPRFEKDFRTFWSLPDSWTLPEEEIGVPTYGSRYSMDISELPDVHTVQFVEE
T1 sequence (Q8RM04 1-717): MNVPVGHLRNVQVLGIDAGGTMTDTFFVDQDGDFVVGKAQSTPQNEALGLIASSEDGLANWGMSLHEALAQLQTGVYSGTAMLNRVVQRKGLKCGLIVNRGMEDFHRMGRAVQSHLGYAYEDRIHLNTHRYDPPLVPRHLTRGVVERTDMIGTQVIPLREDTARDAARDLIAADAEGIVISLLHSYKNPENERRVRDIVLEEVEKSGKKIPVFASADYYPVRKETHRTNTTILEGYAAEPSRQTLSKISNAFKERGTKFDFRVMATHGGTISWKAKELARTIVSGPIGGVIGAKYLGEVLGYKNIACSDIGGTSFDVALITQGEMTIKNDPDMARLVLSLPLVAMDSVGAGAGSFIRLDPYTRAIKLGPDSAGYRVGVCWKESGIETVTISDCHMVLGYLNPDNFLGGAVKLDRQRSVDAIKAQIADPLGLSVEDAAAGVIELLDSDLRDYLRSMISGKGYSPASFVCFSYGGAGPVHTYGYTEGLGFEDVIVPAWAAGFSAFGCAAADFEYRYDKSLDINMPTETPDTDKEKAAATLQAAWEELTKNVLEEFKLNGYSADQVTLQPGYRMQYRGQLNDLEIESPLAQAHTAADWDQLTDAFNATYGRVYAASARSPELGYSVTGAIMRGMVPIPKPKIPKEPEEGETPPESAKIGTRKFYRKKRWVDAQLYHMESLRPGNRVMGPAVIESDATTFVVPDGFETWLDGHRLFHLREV
T1 sequence (Q8RM02 2-168 partner): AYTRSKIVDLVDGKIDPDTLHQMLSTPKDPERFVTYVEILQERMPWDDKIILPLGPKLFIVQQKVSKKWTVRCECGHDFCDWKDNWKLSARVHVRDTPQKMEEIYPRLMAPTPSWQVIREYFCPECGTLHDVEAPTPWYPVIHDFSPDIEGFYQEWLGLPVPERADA

[2] = molecular target: T2, A. aromaticum AC (acetone carboxylase, (αβγ)2) (Aromatoleum aromaticum, UniProt Q5P1N4+Q5P1N5); test: […] Moessbauer; EPR of Mn(II)-reconstituted enzyme; type: binding; conditions: 1 mM AMP, pH 7.6, 57Fe(II)-reconstituted, 80 K (Moessbauer); 10 mM AMP, 1 mM MgCl2 (EPR)
T2 construct: gene acxB; recombinant in E. coli BL21(DE3), pET-Duet vectors; N-terminal 6-His tag on beta subunit; (αβγ)2 heterohexamer; with Acetone carboxylase gamma subunit
T2 sequence (Q5P1N4 1-774): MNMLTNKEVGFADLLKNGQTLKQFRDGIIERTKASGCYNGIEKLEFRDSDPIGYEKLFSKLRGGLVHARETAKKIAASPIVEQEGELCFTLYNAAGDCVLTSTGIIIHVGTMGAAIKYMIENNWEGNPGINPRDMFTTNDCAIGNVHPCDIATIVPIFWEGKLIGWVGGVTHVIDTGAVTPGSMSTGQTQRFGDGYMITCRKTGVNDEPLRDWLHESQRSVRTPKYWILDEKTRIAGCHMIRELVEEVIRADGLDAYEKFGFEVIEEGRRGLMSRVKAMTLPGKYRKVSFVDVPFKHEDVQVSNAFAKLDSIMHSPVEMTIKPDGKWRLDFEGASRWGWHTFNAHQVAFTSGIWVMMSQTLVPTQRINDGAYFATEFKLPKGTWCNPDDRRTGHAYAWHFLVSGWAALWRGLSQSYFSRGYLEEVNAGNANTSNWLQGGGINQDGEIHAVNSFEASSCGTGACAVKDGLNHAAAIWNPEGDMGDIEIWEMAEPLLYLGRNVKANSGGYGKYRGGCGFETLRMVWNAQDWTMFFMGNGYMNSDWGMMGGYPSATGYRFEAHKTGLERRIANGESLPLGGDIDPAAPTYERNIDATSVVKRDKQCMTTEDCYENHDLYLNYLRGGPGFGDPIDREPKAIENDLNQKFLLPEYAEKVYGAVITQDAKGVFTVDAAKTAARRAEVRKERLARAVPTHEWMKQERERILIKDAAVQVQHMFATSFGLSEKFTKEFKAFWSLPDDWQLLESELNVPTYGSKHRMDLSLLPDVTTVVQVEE
T2 sequence (Q5P1N5 1-716): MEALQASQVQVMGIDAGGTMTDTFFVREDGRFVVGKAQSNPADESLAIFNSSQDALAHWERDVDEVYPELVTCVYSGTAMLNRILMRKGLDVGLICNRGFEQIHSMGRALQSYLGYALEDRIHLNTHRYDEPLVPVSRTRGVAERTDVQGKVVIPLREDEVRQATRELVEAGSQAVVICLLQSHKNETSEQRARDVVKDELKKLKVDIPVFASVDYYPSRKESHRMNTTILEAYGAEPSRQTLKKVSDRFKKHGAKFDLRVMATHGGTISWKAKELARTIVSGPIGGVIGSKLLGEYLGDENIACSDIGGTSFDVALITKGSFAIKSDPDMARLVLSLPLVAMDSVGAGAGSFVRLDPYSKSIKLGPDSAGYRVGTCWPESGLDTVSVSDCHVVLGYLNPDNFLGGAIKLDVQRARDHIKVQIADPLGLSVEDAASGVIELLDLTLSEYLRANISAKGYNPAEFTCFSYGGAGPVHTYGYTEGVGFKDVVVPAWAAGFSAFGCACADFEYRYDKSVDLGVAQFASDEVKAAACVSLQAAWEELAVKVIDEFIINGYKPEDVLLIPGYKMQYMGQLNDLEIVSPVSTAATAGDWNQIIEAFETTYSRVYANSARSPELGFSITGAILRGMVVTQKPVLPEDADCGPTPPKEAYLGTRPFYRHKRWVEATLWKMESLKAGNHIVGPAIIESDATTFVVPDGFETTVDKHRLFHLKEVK
T2 sequence (Q5P1N3 1-168 partner): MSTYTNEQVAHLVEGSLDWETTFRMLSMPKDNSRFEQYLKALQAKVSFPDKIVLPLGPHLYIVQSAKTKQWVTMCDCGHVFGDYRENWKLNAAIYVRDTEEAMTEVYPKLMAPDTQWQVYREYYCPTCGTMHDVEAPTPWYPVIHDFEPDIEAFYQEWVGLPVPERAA

Nc1ncnc2c1ncn2[C@@H]1O[C@H](COP(=O)(O)O)[C@@H](O)[C@H]1O [AMP]
EPR of active-site Mn(II); 57Fe Moessbauer [1]: Upon the addition of MgAMP, the apparent Mn(II) signal sharpened and intensified
57Fe Moessbauer; EPR of Mn(II)-reconstituted enzyme [2]: three of which (blue, red, and orange) were affected by the addition of AMP
